Test systems include UACC-257 melanoma; HCC-2998 colon; OVCAR-8 ovarian; HS 578T breast; MALME-3M melanoma; TK-10 renal; PC-3 prostate; NCI-H23 lung; IGROV1 ovarian; SK-OV-3 ovarian.
What all share (assay): inhibition of tumour cell growth, NCI panel, 48 h

Where “and” joins values, the source holds several entries; their conditions need not be identical. Equal values may be shown once.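 In this assay, cells in 96-well plates receive the compound at five concentrations for 48 hours. Endpoints are linearly interpolated between the surrounding concentrations. Here, GI50 denotes the concentration required for 50% inhibition of growth. TGI: total growth inhibition.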 A value given as a limit tells only on which side of the number the result lay.

`C[C@H]1CNC(=O)c2cnn3ccc(nc23)N[C@H](C)c2cc(F)ccc2O1`: the GI50 was 6.45 µM in the assay with UACC-257 melanoma; 3.26 µM in the assay with HCC-2998 colon; 2.54 µM with OVCAR-8 ovarian; 0.325 µM with HS 578T breast; 16.6 µM with MALME-3M melanoma; 0.749 µM with TK-10 renal. Also, the GI50 was 1.53 µM in the assay with PC-3 prostate, 1.93 µM in the assay with NCI-H23 lung, 0.292 µM in the assay with IGROV1 ovarian and 0.641 µM in the assay with SK-OV-3 ovarian. Also, the TGI is greater than 94 µM in the assay on UACC-257 melanoma; 70.3 µM with HCC-2998 colon; greater than 55.1 µM with OVCAR-8 ovarian; 2.76 µM in the assay with HS 578T breast; greater than 100 µM in the assay with MALME-3M melanoma; 3.12 µM in the assay on TK-10 renal. The TGI with PC-3 prostate is greater than 67 µM; in the assay with NCI-H23 lung, 53.1 µM; in the assay with IGROV1 ovarian, 1.92 µM; with SK-OV-3 ovarian, 10 µM.
For the compound `C=C1C(=O)O[C@H]2[C@H]1CC/C(COC(=O)OC/C1=C/CC[C@@]3(C)O[C@H]3[C@H]3OC(=O)[C@@H](CN(C)C)[C@@H]3CC1)=C\CC[C@@]1(C)O[C@@H]21`, the GI50 in the assay on UACC-257 melanoma is 1.63 µM; in the assay with HCC-2998 colon, 2.96 µM; in the assay on OVCAR-8 ovarian, 2.31 µM; with HS 578T breast it was 4.39 µM; in the assay on MALME-3M melanoma, 1.26 µM; in the assay on TK-10 renal, 1.18 µM. Moreover, the GI50 in the assay on PC-3 prostate was 2.7 µM; with NCI-H23 lung, 2.86 µM; in the assay on IGROV1 ovarian, 2.3 µM; in the assay on SK-OV-3 ovarian, 12.8 µM. The TGI in the assay on UACC-257 melanoma worked out at 4.11 µM; in the assay on HCC-2998 colon, 8.2 µM; in the assay with OVCAR-8 ovarian, 10.2 µM; with HS 578T breast it was 26.9 µM; with MALME-3M melanoma it was 3.12 µM; in the assay with TK-10 renal it was 2.57 µM. For the same compound, the TGI with PC-3 prostate stood at 7.89 µM; in the assay with NCI-H23 lung it was 10.2 µM; in the assay on IGROV1 ovarian, 8.22 µM; in the assay on SK-OV-3 ovarian, 25.4 µM.
Turning to `Nc1nc(SCc2ccccc2Cl)cc(C(=O)O)n1`, the TGI in the assay on UACC-257 melanoma, in the assay on HCC-2998 colon, with OVCAR-8 ovarian, in the assay with HS 578T breast, in the assay on MALME-3M melanoma and in the assay on TK-10 renal was greater than 100 µM each time. For the same compound, the TGI with PC-3 prostate, in the assay with NCI-H23 lung, in the assay on IGROV1 ovarian and in the assay on SK-OV-3 ovarian was greater than 100 µM throughout.
In the case of `CCCCCCCCCCCCCCCCOP(=O)([O-])OCC[N+](C)(C)C`, the GI50 was 2.31 µM in the assay on UACC-257 melanoma; 1.06 µM in the assay with HCC-2998 colon; 3.31 µM in the assay with OVCAR-8 ovarian; 4.21 µM with HS 578T breast; 3.1 µM with MALME-3M melanoma; 0.182 µM in the assay with TK-10 renal. Also, the GI50 is 0.277 µM in the assay with PC-3 prostate, 3.17 µM with NCI-H23 lung, 0.901 µM in the assay on IGROV1 ovarian and 1.2 µM with SK-OV-3 ovarian. The TGI was 6.98 µM and 64.7 µM in the assay with UACC-257 melanoma; 11.8 µM and 48.3 µM with OVCAR-8 ovarian; 18.9 µM and 40.7 µM with HS 578T breast; 12.6 µM and 52.7 µM in the assay on MALME-3M melanoma; 1.51 µM and 7.73 µM in the assay on PC-3 prostate; 13.3 µM and 65.3 µM with NCI-H23 lung. Also, the TGI was 3.7 µM and 14 µM in the assay with IGROV1 ovarian; 9.4 µM and 57.1 µM in the assay with SK-OV-3 ovarian.
On to `CCC1(OC(=O)CN)C(=O)OCc2c1cc1n(c2=O)Cc2cc3ccccc3nc2-1` (stereo not given), for which the GI50 in the assay on UACC-257 melanoma is 0.0859 µM; with HCC-2998 colon it was 0.175 µM; with OVCAR-8 ovarian, 0.04 µM and 0.0227 µM; with MALME-3M melanoma, 0.196 µM; in the assay with TK-10 renal, 0.721 µM; with PC-3 prostate, 0.172 µM. Besides, the GI50 in the assay on NCI-H23 lung was 0.0191 µM; with IGROV1 ovarian it was 0.134 µM; in the assay with SK-OV-3 ovarian it was 0.0224 µM. Further, the TGI is 0.721 µM and 0.545 µM in the assay with UACC-257 melanoma; 1.08 µM in the assay on HCC-2998 colon; greater than 90.7 µM with HS 578T breast; 0.802 µM and 3.75 µM in the assay on MALME-3M melanoma; 15.1 µM in the assay with TK-10 renal; greater than 100 µM with PC-3 prostate. Moreover, the TGI in the assay with NCI-H23 lung was 0.15 µM and 0.0424 µM; with IGROV1 ovarian, 0.726 µM and 2.21 µM; in the assay with SK-OV-3 ovarian it was greater than 54.3 µM.
For the compound `O=C(Nc1ccc(F)cc1)Nc1ccc(Br)c(C(F)(F)F)c1`, the GI50 in the assay on UACC-257 melanoma was 2.73 µM; with HCC-2998 colon, 2.38 µM; in the assay with OVCAR-8 ovarian it was 2.95 µM; with HS 578T breast, 2.95 µM; in the assay on MALME-3M melanoma it was 2.12 µM; with TK-10 renal it was 2.33 µM. In addition, the GI50 with PC-3 prostate is 0.847 µM; in the assay on NCI-H23 lung it was 2.04 µM; with IGROV1 ovarian, 3.58 µM; in the assay with SK-OV-3 ovarian, 2.16 µM. In addition, the TGI turned out to be 7.51 µM in the assay with UACC-257 melanoma; 7.73 µM with HCC-2998 colon; 15.2 µM with OVCAR-8 ovarian; 9.31 µM with HS 578T breast; 5.8 µM in the assay with MALME-3M melanoma; 7.43 µM in the assay with TK-10 renal. The TGI came to 9.24 µM in the assay with PC-3 prostate, 9.5 µM in the assay with NCI-H23 lung, 15.2 µM in the assay with IGROV1 ovarian and 6.27 µM in the assay with SK-OV-3 ovarian.
As for `C=C1C(=O)O[C@H]2[C@H]1CC/C(Cn1cc(-c3ccc(F)cc3)nn1)=C\CC[C@@]1(C)O[C@@H]21`, the GI50 in the assay with UACC-257 melanoma was 1.47 µM; in the assay with HCC-2998 colon, 1.74 µM; in the assay with OVCAR-8 ovarian, 1.66 µM; in the assay on HS 578T breast it was 3.68 µM; in the assay on MALME-3M melanoma, 1.4 µM; in the assay on TK-10 renal, 1.24 µM. In addition, the GI50 in the assay on PC-3 prostate was 2 µM; with NCI-H23 lung it was 1.78 µM; with IGROV1 ovarian, 1.17 µM; in the assay on SK-OV-3 ovarian, 9.78 µM. The TGI came to 3 µM with UACC-257 melanoma; 3.3 µM with HCC-2998 colon; 3.85 µM in the assay on OVCAR-8 ovarian; 22.6 µM in the assay with HS 578T breast; 2.97 µM with MALME-3M melanoma; 2.53 µM in the assay with TK-10 renal. The TGI amounted to 4.07 µM in the assay on PC-3 prostate, 3.71 µM with NCI-H23 lung, 2.64 µM in the assay with IGROV1 ovarian and 21.4 µM with SK-OV-3 ovarian.
On to `CC([C@H]1CC=C2C3CCC4=C[C@@H](N(C)C)CC[C@]4(C)C3CC[C@@]21C)N(C)C` (stereo not given in full), for which the GI50 was 6.1 µM in the assay on UACC-257 melanoma; 4.21 µM with HCC-2998 colon; 5.85 µM in the assay on OVCAR-8 ovarian; 3.24 µM in the assay with HS 578T breast; 1.92 µM in the assay with MALME-3M melanoma; 5.42 µM in the assay with TK-10 renal. Besides, the GI50 with PC-3 prostate was 2.15 µM; in the assay with NCI-H23 lung, 3.15 µM; in the assay on IGROV1 ovarian, 4.88 µM; in the assay with SK-OV-3 ovarian, 3.86 µM. Besides, the TGI in the assay on UACC-257 melanoma worked out at 19.4 µM; in the assay on HCC-2998 colon it was 13.1 µM; in the assay on OVCAR-8 ovarian, 22.3 µM; with HS 578T breast, 13.6 µM; in the assay with MALME-3M melanoma, 4.47 µM; in the assay on TK-10 renal, 20 µM. Besides, the TGI was determined as 7.72 µM with PC-3 prostate, 14.8 µM with NCI-H23 lung and 11.6 µM with SK-OV-3 ovarian.
